{"source": "patent US20150030583A1", "about": "“Methods of Treating Serosal Cancer” (SLOAN KETTERING INSTITUTE FOR CANCER RESEARCH, priority 2011, published 2015)", "key": {"[1]": {"experiment": "Viscosity of catena culture supernatant after enzyme treatment", "conditions": "a few drops 10 mg/mL enzyme", "protocol": "In contrast, Ovcar3-GTL epithelial cells were 98% positive for CA125 by FACS and secreted 800 units/ml of CA125 into culture media. For the ELISA, cell supernatants were collected by spinning the cultures at 300×g for 5 min to remove cells and assayed by CA125 ELISA using an automated instrument, ADVIA Centaur XP Immunoassay System (Siemens Healthcare Diagnostics Inc.).\nHyaluronan is a glycosaminoglycan found in extracellular matrix and functions to provide microenvironmental cues in a number of biological processes, including tumor development [Toole, 2004]. Supernatants prepared as above were treated with a few drops 10 mg/mL hyaluronidase (Sigma) in deionized water."}, "[2]": {"system": "catena cells", "experiment": "In vitro clonogenicity assay of catena cells", "format": "cell-based", "conditions": "enzyme included in the clonogenic assay; attached cells", "description": "Catena cells were dissociated with hyaluronidase, allowed to attach to tissue culture plates and grown in the presence hyaluronidase for 7 days. Under these conditions, cells remained attached to tissue culture plates. The cells were harvested and subjected to an in vitro clonogenicity assay in the presence and absence of hyaluronidase. In parallel, mechanically-dissociated catena were subjected to the in vitro clonogenicity assay in the presence and absence of hyaluronidase."}, "[3]": {"system": "glycocalyx surrounding a catena", "experiment": "Particle exclusion experiment with red blood cells", "format": "cell-based", "conditions": "brief incubation with enzyme, RBCs overnight", "protocol": "To visualize the glycocalyx surrounding a catena, a particle exclusion experiment was conducted using red blood cells (RBCs). Catenae were mechanically dissociated by pipetting or by brief incubation with hyaluronidase as before. RBCs from human peripheral blood were added and the mixture was incubated overnight in culture media. The cells were observed under the light microscope for the presence of a glycocalyx separating catena cells from the RBCs."}, "[4]": {"system": "catena cells", "experiment": "Growth of catena cells upon disruption of the glycocalyx", "format": "cell-based", "protocol": "To investigate the how catena cells grow upon disruption of the glycocalyx, catenae were dissociated to single cells with hyaluronidase treatment and plated in tissue culture treated flasks with or without 10% hyaluronidase enzyme solution (10 mg/ml) to prevent the formation of glycocalyx. In parallel, catenae were dissociated mechanically and plated in the absence of hyaluronidase."}, "[5]": {"system": "low molecular weight complex of collagen and hyaluronan", "experiment": "Western blot (anti-COL1A2) of catena culture supernatant", "format": "biochemical", "description": "The glycocalyx of the catena has two major components, i.e., hyaluronan and collagen, which interact and form a stable complex. […] Briefly, the supernatant fraction of catena cell cultures was separated from the cells by centrifugation. The supernatant was run in an SDS-PAGE gel and blotted with the anti-COL1A2 antibody. This complex was sensitive to hyaluronidase treatment but was not affected by collagenase type 1, 2 or 4 treatment. This hyaluronan-collagen complex could be important for the formation of catena glycocalyx and drug resistance or metastatic potential conferred to catena cells by the glycocalyx."}, "[6]": {"system": "catena cells", "experiment": "Morphological observation of treated catenae under the microscope", "format": "cell-based", "conditions": "microscope observation; listed as non-PEGylated hyaluronidase"}}}
{"substance": "hyaluronidase", "values": [{"measurement": "viscosity of culture supernatant", "setting": "[1]", "result": "rapidly reduced the viscosity"}, {"measurement": "colony size in clonogenic assay", "setting": "[2]", "result": "further reduced"}, {"measurement": "glycocalyx coat in RBC particle exclusion", "setting": "[3]", "result": "completely lacked a glycocalyx"}, {"measurement": "growth of catena cells, continuous enzyme treatment", "setting": "[4]; 10% enzyme solution (10 mg/ml) in culture", "result": "attached to tissue culture plates and formed epithelial and mesenchymal monolayers"}, {"measurement": "growth of catena cells, brief enzyme treatment, plated without enzyme", "setting": "[4]; dissociated to single cells with enzyme", "result": "no longer formed free floating chains but rather proliferated as irregular aggregates in suspension"}, {"measurement": "effect on hyaluronan-collagen complex (less than 20 kDa)", "setting": "[5]", "result": "sensitive"}, {"measurement": "morphological change of treated catenae", "setting": "[6]", "result": "caused aggregation of catena cells"}]}
